According to ChEMBL document CHEMBL1201862, “PubChem BioAssay data set” (2004):
Activity calls are given as the source filed them.

Columns and labels:
Type in all cases: functional
[1] = target: T1, High affinity choline transporter 1 (Homo sapiens, UniProt Q9GZV3); assay: human choline transporter blockers, potency – cell-based, 5-point CRC, membrane potential dye, dose response (AID 504840)
T1 sequence (Q9GZV3 whole entry): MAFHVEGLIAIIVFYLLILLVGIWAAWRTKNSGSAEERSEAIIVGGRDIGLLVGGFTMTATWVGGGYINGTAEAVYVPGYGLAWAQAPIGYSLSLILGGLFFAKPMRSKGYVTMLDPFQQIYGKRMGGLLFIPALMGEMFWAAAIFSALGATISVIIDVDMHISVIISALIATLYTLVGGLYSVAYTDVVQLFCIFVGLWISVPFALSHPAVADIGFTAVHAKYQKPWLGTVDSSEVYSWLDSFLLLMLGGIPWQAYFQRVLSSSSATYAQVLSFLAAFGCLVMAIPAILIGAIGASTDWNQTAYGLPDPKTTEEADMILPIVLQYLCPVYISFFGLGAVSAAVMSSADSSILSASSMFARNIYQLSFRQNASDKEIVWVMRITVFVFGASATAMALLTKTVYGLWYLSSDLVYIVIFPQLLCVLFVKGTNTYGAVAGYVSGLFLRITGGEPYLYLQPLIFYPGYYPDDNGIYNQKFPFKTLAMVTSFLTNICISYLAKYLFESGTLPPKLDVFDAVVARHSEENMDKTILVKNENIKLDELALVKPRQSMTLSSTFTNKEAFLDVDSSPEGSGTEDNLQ

[2] = target: T1, High affinity choline transporter 1; assay: human choline transporter blockers, potency – cell-based, 10-point CRC, membrane potential dye, dose response (AID 588401);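 also: membrane potential dye fluorescence of choline-evoked depolarization via CHT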
[3] = target: Cyclin-dependent kinase 5 (Homo sapiens, UniProt Q00535);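 also: CDK5 measured as one member of a kinase profiling panel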
[4] = target: Cyclin-dependent kinase 7 (Homo sapiens, UniProt P50613);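 also: value comes from a kinome-wide kinase profiling panel in which CDK7 is one member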
[5] = target: Glycogen synthase kinase-3 beta (Homo sapiens, UniProt P49841);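 also: value comes from a broad kinome profiling panel, with GSK3B as the panel member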
[6] = target: Dual specificity mitogen-activated protein kinase kinase 2 (Homo sapiens, UniProt P36507); assay: Navigating the Kinome. Panel member name: MAP2K2
[7] = target: Mitogen-activated protein kinase 8 (Homo sapiens, UniProt P45983);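 also: value comes from one member of a kinome-wide kinase profiling panel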
[8] = target: ALK tyrosine kinase receptor (Homo sapiens, UniProt Q9UM73);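 also: ALK tested as one member of a kinase panel screen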
[9] = target: Tyrosine-protein kinase JAK3 (Homo sapiens, UniProt P52333)
[10] = target: Tyrosine-protein kinase Fyn (Homo sapiens, UniProt P06241)
[11] = target: Serine/threonine-protein kinase TBK1 (Homo sapiens, UniProt Q9UHD2); assay: Navigating the Kinome. Panel member name: TBK1
[12] = target: Dual specificity protein kinase CLK4 (Homo sapiens, UniProt Q9HAZ1)
[13] = target: Leukocyte tyrosine kinase receptor (Homo sapiens, UniProt P29376); assay: Navigating the Kinome. Panel member name: LTK
[14] = target: Tyrosine-protein kinase ABL1 (Homo sapiens, UniProt P00519)
[15] = target: cAMP-dependent protein kinase catalytic subunit PRKX (Homo sapiens, UniProt P51817)
[16] = target: Mitogen-activated protein kinase 14 (Homo sapiens, UniProt Q16539);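 also: part of a kinome-wide panel, MAPK14 entry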
[17] = target: Vascular endothelial growth factor receptor 1 (Homo sapiens, UniProt P17948);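 also: measured within a kinome-wide profiling panel, FLT1 as the panel member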
[18] = target: Dual specificity protein kinase CLK2 (Homo sapiens, UniProt P49760)
[19] = target: Platelet-derived growth factor receptor beta (Homo sapiens, UniProt P09619);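 also: value comes from a kinome panel, with PDGFRB tested as one panel member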
[20] = target: Vascular endothelial growth factor receptor 2 (Homo sapiens, UniProt P35968)
[21] = target: cAMP-dependent protein kinase catalytic subunit alpha (Homo sapiens, UniProt P17612)
[22] = target: Cyclin-dependent kinase 8 (Homo sapiens, UniProt P49336); assay: Navigating the Kinome. Panel member name: CDK8
[23] = target: Mitogen-activated protein kinase kinase kinase kinase 2 (Homo sapiens, UniProt Q12851);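 also: measured as one member of a kinome-wide kinase panel, with MAP4K2 as the panel entry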
[24] = target: High affinity nerve growth factor receptor (Homo sapiens, UniProt P04629);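 also: NTRK1 tested as one member of a kinome-wide profiling panel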
[25] = target: Tyrosine-protein kinase receptor TYRO3 (Homo sapiens, UniProt Q06418);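 also: TYRO3 value obtained as one member of a kinome-wide profiling panel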
[26] = target: Activated CDC42 kinase 1 (Homo sapiens, UniProt Q07912); assay: Navigating the Kinome. Panel member name: ACK1
[27] = target: Aurora kinase B (Homo sapiens, UniProt Q96GD4)
[28] = target: Activin receptor type-1 (Homo sapiens, UniProt Q04771); assay: Navigating the Kinome. Panel member name: ACVR1
[29] = target: Protein kinase C theta type (Homo sapiens, UniProt Q04759); assay: Navigating the Kinome. Panel member name: PRKCQ
[30] = target: Mitogen-activated protein kinase 9 (Homo sapiens, UniProt P45984);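 also: value from a kinome panel profiling assay, MAPK9 panel entry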
[31] = target: BDNF/NT-3 growth factors receptor (Homo sapiens, UniProt Q16620);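 also: NTRK2 measured as one member of a broad kinome-wide kinase profiling panel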
[32] = target: Insulin-like growth factor 1 receptor (Homo sapiens, UniProt P08069); assay: Navigating the Kinome. Panel member name: IGF1R
[33] = target: Leucine-rich repeat serine/threonine-protein kinase 2 (Homo sapiens, UniProt Q5S007);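 also: value from a broad kinome-wide panel profiling study in which LRRK2 was one of the kinases tested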
[34] = target: Death-associated protein kinase 3 (Homo sapiens, UniProt O43293);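 also: measured as one member of a kinome-wide profiling panel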
[35] = target: Serine/threonine-protein kinase pim-1 (Homo sapiens, UniProt P11309)
[36] = target: Serine/threonine-protein kinase D3 (Homo sapiens, UniProt O94806);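 also: determined within a kinase panel screen, with PRKCN as the panel member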
[37] = target: Macrophage-stimulating protein receptor (Homo sapiens, UniProt Q04912); assay: Navigating the Kinome. Panel member name: MST1R
[38] = target: Rho-associated protein kinase 1 (Homo sapiens, UniProt Q13464);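 also: measured within a broad kinome-wide panel profiling many kinases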
[39] = target: Serine/threonine-protein kinase Chk1 (Homo sapiens, UniProt O14757);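 also: measured as one member of a kinome-wide kinase profiling panel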
[40] = target: Calcium/calmodulin-dependent protein kinase type II subunit alpha (Homo sapiens, UniProt Q9UQM7); assay: Navigating the Kinome. Panel member name: CAMK2A
[41] = target: Aurora kinase A (Homo sapiens, UniProt O14965);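 also: value from the Navigating the Kinome kinase panel profiling, panel entry STK6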
[42] = target: Cyclin-dependent kinase 9 (Homo sapiens, UniProt P50750);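 also: value from the CDK9 entry of a kinome-spanning kinase panel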
[43] = target: Macrophage colony-stimulating factor 1 receptor (Homo sapiens, UniProt P07333);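 also: value comes from the Navigating the Kinome screening panel, CSF1R member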
[44] = target: Serine/threonine-protein kinase PAK 4 (Homo sapiens, UniProt O96013);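 also: value obtained within a kinome profiling panel in which PAK4 was one of the panel members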
[45] = target: 5'-AMP-activated protein kinase catalytic subunit alpha-1 (Homo sapiens, UniProt Q13131)
[46] = target: Dual specificity mitogen-activated protein kinase kinase 1 (Homo sapiens, UniProt Q02750); assay: Navigating the Kinome. Panel member name: MAP2K1
[47] = target: Platelet-derived growth factor receptor alpha (Homo sapiens, UniProt P16234); assay: Navigating the Kinome. Panel member name: PDGFRA
[48] = target: Dual specificity tyrosine-phosphorylation-regulated kinase 1A (Homo sapiens, UniProt Q13627);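 also: measured against DYRK1A as one member of a broad kinome profiling panel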
[49] = target: Receptor-type tyrosine-protein kinase FLT3 (Homo sapiens, UniProt P36888);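 also: FLT3 was tested as one member of a kinome-wide kinase panel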
[50] = target: LIM domain kinase 1 (Homo sapiens, UniProt P53667); assay: Navigating the Kinome. Panel member name: LIMK1
[51] = target: Serine/threonine-protein kinase Nek2 (Homo sapiens, UniProt P51955)
[52] = target: Inhibitor of nuclear factor kappa-B kinase subunit epsilon (Homo sapiens, UniProt Q14164); assay: Navigating the Kinome. Panel member name: IKBKE
[53] = target: Mitogen-activated protein kinase kinase kinase kinase 4 (Homo sapiens, UniProt O95819)
[54] = target: Glycogen synthase kinase-3 alpha (Homo sapiens, UniProt P49840);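 also: GSK3A result taken from a broad kinome-wide kinase panel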
[55] = target: Tyrosine-protein kinase Lck (Homo sapiens, UniProt P06239);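 also: lck was assayed as one member of a kinase panel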
[56] = target: Fibroblast growth factor receptor 1 (Homo sapiens, UniProt P11362)
[57] = target: Casein kinase I isoform alpha (Homo sapiens, UniProt P48729)
[58] = target: Dual specificity tyrosine-phosphorylation-regulated kinase 1B (Homo sapiens, UniProt Q9Y463); assay: Navigating the Kinome. Panel member name: DYRK1B
[59] = target: Serine/threonine-protein kinase TAO1 (Homo sapiens, UniProt Q7L7X3)
[60] = target: Tyrosine-protein kinase JAK2 (Homo sapiens, UniProt O60674);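 also: JAK2 tested as one member of a kinase panel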

Sequence of Aurora kinase B (Q96GD4 whole entry): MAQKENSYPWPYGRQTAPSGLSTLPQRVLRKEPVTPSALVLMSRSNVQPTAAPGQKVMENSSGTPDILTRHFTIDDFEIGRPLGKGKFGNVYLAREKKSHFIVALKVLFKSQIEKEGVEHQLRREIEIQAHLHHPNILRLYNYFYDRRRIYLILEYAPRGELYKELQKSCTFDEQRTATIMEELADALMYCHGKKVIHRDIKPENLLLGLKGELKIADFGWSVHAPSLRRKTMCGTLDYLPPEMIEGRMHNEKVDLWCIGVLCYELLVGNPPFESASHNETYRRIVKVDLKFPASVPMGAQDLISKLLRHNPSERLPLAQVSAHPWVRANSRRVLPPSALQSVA
Sequence of Platelet-derived growth factor receptor alpha (P16234 whole entry): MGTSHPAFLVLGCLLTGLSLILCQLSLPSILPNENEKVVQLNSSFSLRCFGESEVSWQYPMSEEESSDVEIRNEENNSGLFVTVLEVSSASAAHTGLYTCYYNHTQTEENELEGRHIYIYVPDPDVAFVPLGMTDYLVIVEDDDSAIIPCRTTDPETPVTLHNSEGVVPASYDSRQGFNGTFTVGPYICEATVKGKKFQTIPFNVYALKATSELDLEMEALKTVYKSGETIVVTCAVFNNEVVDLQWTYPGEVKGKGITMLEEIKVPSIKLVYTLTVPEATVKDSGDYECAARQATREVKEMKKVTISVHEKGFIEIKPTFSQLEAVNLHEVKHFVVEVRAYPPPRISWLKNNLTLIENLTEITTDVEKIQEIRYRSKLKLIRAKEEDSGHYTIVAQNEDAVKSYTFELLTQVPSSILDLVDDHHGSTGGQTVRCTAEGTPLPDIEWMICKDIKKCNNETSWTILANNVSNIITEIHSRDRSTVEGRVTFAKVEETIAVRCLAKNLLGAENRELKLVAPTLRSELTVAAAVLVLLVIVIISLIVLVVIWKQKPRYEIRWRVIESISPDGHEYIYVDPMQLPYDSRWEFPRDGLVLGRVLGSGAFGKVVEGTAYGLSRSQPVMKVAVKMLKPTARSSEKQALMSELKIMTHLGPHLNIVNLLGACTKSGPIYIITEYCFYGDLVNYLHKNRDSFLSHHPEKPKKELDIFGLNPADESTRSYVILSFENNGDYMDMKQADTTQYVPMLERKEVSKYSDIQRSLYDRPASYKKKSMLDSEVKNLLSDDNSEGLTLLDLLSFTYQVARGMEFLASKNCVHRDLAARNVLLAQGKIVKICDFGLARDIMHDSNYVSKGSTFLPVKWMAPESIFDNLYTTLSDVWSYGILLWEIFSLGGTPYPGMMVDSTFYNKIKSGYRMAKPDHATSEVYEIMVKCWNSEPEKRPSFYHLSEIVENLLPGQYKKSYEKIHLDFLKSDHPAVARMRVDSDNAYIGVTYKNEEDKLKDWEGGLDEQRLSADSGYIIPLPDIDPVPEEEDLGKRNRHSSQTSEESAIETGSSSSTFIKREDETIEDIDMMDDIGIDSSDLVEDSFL
Sequence of Mitogen-activated protein kinase 14 (Q16539 whole entry): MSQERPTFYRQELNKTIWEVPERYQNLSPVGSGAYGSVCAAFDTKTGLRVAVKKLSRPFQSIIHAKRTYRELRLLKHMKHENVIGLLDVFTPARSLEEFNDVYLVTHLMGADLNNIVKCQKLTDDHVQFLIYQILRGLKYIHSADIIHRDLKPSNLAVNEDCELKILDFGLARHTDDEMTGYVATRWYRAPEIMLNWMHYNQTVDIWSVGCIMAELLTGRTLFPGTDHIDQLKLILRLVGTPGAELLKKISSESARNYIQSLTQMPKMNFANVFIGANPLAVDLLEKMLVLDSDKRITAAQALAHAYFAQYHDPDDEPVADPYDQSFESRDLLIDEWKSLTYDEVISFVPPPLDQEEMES
Sequence of Rho-associated protein kinase 1 (Q13464 whole entry): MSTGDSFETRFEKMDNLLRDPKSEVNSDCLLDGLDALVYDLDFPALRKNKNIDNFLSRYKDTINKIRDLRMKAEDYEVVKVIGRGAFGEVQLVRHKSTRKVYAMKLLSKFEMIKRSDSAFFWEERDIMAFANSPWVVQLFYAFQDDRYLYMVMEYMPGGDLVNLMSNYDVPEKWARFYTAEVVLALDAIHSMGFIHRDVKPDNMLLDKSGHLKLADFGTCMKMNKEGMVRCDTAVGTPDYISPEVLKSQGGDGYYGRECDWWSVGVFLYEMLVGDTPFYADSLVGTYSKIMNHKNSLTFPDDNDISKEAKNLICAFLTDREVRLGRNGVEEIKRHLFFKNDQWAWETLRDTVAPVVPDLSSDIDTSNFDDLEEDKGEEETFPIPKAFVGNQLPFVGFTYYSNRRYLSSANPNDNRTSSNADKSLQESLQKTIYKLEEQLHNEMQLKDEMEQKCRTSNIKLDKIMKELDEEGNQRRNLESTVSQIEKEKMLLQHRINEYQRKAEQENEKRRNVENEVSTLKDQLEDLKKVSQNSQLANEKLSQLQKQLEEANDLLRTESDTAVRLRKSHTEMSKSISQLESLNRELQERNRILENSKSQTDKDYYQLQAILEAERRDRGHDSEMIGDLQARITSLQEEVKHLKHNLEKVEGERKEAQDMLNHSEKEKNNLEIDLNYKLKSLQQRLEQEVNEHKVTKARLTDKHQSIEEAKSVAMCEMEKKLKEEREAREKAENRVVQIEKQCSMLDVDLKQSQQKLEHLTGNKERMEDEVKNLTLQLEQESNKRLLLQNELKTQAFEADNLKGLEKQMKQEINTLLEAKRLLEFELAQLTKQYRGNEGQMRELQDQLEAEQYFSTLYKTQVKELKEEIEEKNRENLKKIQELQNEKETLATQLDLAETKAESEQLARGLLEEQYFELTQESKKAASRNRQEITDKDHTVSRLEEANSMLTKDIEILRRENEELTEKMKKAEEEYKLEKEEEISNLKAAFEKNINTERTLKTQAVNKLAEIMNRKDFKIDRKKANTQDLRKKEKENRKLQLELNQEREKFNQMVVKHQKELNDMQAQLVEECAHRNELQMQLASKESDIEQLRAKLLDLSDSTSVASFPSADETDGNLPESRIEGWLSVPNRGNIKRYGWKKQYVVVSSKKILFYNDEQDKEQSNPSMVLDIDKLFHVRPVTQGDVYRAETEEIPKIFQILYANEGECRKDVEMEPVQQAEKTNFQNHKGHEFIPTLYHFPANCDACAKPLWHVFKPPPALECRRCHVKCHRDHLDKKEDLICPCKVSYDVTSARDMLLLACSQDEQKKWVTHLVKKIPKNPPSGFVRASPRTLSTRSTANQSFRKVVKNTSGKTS
Sequence of cAMP-dependent protein kinase catalytic subunit PRKX (P51817 whole entry): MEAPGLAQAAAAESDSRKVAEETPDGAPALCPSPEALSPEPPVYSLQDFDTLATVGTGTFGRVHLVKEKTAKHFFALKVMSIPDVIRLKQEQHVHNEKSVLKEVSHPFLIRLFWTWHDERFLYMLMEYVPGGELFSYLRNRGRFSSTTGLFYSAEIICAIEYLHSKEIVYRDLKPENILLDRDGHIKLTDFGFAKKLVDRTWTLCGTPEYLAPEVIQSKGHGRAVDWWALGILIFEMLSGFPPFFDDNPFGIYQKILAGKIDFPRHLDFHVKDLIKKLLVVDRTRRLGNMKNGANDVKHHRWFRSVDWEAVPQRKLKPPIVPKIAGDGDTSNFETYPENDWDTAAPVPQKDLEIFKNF
Sequence of Macrophage-stimulating protein receptor (Q04912 25-304 limits assumed): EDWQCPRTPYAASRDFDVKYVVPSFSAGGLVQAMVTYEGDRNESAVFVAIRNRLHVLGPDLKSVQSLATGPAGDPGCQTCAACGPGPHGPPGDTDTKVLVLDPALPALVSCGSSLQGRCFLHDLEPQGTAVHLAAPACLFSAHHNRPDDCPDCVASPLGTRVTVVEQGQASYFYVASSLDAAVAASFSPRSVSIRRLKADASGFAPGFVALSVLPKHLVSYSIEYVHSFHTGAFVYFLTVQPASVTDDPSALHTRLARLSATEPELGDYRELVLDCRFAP
Sequence of Macrophage-stimulating protein receptor (Q04912 310-1400 limits assumed): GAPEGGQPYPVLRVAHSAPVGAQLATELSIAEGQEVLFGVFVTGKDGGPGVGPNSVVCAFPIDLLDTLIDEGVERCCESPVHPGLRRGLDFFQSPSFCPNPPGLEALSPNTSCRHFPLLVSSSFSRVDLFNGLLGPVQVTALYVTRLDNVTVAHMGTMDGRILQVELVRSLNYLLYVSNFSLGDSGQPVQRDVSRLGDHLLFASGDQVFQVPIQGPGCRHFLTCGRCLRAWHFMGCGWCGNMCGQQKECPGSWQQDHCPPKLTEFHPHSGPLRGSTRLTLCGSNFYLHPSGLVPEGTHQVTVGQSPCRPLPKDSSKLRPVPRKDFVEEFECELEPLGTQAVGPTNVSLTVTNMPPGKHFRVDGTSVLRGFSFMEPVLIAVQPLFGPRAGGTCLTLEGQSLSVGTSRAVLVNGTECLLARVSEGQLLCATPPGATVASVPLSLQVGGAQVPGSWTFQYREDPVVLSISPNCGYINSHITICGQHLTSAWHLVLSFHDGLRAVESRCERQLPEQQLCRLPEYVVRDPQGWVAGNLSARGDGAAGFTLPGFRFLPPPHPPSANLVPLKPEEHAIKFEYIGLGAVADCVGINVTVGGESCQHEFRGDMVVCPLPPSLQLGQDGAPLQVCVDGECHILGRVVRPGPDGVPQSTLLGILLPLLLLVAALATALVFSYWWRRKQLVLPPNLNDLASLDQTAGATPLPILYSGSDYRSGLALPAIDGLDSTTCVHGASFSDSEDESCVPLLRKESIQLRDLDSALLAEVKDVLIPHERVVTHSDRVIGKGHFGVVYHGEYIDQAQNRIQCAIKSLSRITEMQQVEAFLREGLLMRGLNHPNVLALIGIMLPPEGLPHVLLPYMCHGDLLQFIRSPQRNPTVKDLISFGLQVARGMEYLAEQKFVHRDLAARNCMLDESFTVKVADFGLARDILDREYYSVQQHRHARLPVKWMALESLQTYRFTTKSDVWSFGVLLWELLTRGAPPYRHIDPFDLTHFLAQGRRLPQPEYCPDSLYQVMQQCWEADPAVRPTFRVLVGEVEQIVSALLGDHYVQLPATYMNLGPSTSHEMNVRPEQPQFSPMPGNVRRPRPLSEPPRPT

With COc1ccc(C(CNC(=O)c2cccc(S(=O)(=O)Nc3ccc(C)cc3)c2)N2CCCCC2)cc1 (stereo not given) the IC50 [1] was 8720 nM (active) and the IC50 [2] was 5770 nM (active).

With N#Cc1ccc2c(c1)C(c1ccc3c(n1)CCCC3O)C(=O)N2 (stereo not given) the Ki [3] was > 3160 nM (inactive), the Ki [4] was 39.8 nM (active) and the Ki [5] was 31.6 nM (active). The Ki [6] was 794 nM (active), the Ki [7] was 1260 nM (active) and the Ki [8] was 2510 nM (active). For the same compound, the Ki [9] was > 5010 nM (inactive), the Ki [10] was > 6310 nM (inactive) and the Ki [11] was 794 nM (active). The Ki [12] was 31.6 nM (active), the Ki [13] was 501 nM (active) and the Ki [14] was > 2510 nM (inactive). The Ki [15] was > 3160 nM (inactive), the Ki [16] was > 3980 nM (inactive) and the Ki [17] was 1580 nM (active). For the same compound, the Ki [18] was 398 nM (active), the Ki [19] was 316 nM (active) and the Ki [20] was 158 nM (active). For the same compound, the Ki [21] was > 1260 nM (inactive), the Ki [22] was > 3980 nM (inactive) and the Ki [23] was 1580 nM (active). For the same compound, the Ki [24] was > 3160 nM (inactive), the Ki [25] was 2510 nM (active) and the Ki [26] was > 3980 nM (inactive). For the same compound, the Ki [27] was 501 nM (active), the Ki [28] was 2000 nM (active) and the Ki [29] was > 2510 nM (inactive). The Ki [30] was > 3980 nM (inactive), the Ki [31] was 2000 nM (active) and the Ki [32] was > 2510 nM (inactive). For the same compound, the Ki [33] was 1260 nM (active), the Ki [34] was 1260 nM (active) and the Ki [35] was > 6310 nM (inactive). The Ki [36] was 3160 nM (active), the Ki [37] was 316 nM (active) and the Ki [38] was 2000 nM (active). For the same compound, the Ki [39] was > 3160 nM (inactive), the Ki [40] was > 3980 nM (inactive) and the Ki [41] was 1580 nM (active). For the same compound, the Ki [42] was 631 nM (active), the Ki [43] was 126 nM (active) and the Ki [44] was > 5010 nM (inactive). For the same compound, the Ki [45] was 1260 nM (active), the Ki [46] was 1000 nM (active) and the Ki [47] was > 2510 nM (inactive). For the same compound, the Ki [48] was 100 nM (active), the Ki [49] was 100 nM (active) and the Ki [50] was > 3160 nM (inactive). For the same compound, the Ki [51] was > 3160 nM (inactive), the Ki [52] was 2000 nM (active) and the Ki [53] was 316 nM (active). For the same compound, the Ki [54] was 79.4 nM (active), the Ki [55] was > 6310 nM (inactive) and the Ki [56] was 3160 nM (active). For the same compound, the Ki [57] was 39.8 nM (active), the Ki [58] was 126 nM (active) and the Ki [59] was > 6310 nM (inactive). For the same compound, the Ki [60] was > 2510 nM (inactive).
